{
  "source": "paper PMC8692984",
  "about": "(Frontiers in Pharmacology, 2021)",
  "key": {"α7 nAChRs [1]": {"target": "T1, α7 nAChRs (Homo sapiens, UniProt P36544)", "T1 sequence (P36544 23-502)": "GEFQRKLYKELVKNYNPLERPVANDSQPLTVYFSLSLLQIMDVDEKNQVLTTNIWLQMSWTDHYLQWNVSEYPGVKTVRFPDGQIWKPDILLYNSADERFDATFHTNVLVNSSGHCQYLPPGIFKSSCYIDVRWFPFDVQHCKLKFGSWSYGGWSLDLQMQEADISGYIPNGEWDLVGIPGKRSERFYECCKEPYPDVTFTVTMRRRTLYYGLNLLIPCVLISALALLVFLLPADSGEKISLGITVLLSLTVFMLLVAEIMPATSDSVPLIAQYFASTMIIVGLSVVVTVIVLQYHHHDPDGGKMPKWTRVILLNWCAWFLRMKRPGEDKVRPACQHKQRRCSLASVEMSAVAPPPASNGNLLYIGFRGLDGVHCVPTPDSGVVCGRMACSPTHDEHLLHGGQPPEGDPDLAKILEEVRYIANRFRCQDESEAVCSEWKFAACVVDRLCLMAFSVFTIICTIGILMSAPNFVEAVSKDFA", "assay": "cell-based", "settings": "Choline EC50 ± SEM at PNU120596-α7 nAChRs"}, "α7 nAChRs [2]": {"target": "T1, α7 nAChRs", "assay": "cell-based", "settings": "Choline EC50 ± SEM at TQS-α7 nAChRs"}},
  "data": [
    {"molecule": "C[N+](C)(C)CCO", "note": "[Choline, reference compound]", "values": [
      {"measurement": "EC50", "setting": "α7 nAChRs [1]", "value": "3 ± 0.26", "unit": "µM"},
      {"measurement": "EC50", "setting": "α7 nAChRs [2]", "value": "9 ± 0.9", "unit": "µM"}
    ]}
  ]
}
